# Results reported in patent publication US9034891B2, “Bicyclic heterocyclic spiro compounds” (ISRAEL INSTITUTE FOR BIOLOGICAL RESEARCH, priority 2009, dated 2015).
# What was measured:
# [1] = test system: PC12 cells; test: MTT assay, β-amyloid 25-35 toxicity in PC12 cells; assay type: cell-based, rat; details: 5 μM β-amyloid 25-35, 6 hours; 10 μM-1 nM
# Description: The 3-(4,5-dimethylthiazol-2-yl)-2,5-diphenyl-tetrazolium bromide (MTT) assay measures changes that occur within the cells, involving mitochondria activation, indicative of a process that eventually leads to cell death (Fagarasan et al., Mol. Psychiat. 1996, 1:398-403). This assay is a specific, early indicator of the mechanism of β-amyloid-mediated cell death (Shearman et al., PNAS USA 1994, 91:1470-74). This assay was used to evaluate compounds of formulae I and II. Rat pheochromocytoma (PC12) cells were plated in 96 well plate at a density of 10,000 cells/well, and maintained in Dulbecco's modified Eagle medium (Gibco, Cat. 21969) supplemented with 5% fetal bovine serum (Biological Industries, Cat. 04-121-1A), 10% heat-inactivated horse serum (Gibco Cat. 26050), L-Glutamine 200 mM (Biological Industries, Cat. 03-020-1C), Penicillin 10000 U/ml (Biological Industries, Cat 03-031-1C), and Amphotericin B 50 mg/ml (Biological Industries, Cat. 01-029-1C). The next day the medium was refreshed with serum free media and cells were treated with 5 μM β-amyloid 25-35 (H-1192.0001, Bachem) in the presence or absence of the test compound. Compounds were tested for 6 hours, respectively, at final concentrations ranging between 0.1 nM to 100 μM. 3-Indolepropionic acid (3-IPA, Cat. 220027, Sigma Aldrich) served as a reference antioxidant.
# [2] = molecular target: T1, M1 mAChR (Homo sapiens, UniProt P11229); test: αAPPs secretion in CHO cells double transfected with human APP695 and human M1 mAChR; assay type: cell-based; details: for maximal αAPPs secretion in comparison to untreated control cells: doubly-transfected CHO cells, AF710B at 0.01 μM, AF710 at 0.1 μM, AF710A at 1 μM
# T1 sequence (P11229 1-460): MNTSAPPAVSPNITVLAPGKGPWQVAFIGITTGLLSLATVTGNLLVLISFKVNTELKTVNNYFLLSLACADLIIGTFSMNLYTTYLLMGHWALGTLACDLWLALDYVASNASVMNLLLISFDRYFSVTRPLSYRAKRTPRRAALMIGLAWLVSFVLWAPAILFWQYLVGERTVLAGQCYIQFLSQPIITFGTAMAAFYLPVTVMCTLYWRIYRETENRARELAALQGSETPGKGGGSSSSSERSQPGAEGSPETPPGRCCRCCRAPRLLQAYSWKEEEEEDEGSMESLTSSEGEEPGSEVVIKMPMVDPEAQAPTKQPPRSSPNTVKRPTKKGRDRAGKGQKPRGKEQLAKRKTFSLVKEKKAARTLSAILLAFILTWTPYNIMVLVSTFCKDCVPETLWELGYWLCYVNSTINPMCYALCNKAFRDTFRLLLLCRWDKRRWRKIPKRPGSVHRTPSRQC
# Procedure: (§1) α-APPs Secretion studies following incubation with the tested compounds were performed as described in Haring, et al. J. Neurochem., 1998, 71:2094-103. […] A day later, cells were washed twice with serum free media, and treated with the test compound at various concentrations ranging from 0.1 nM to 100 μM. […] After 1 hour the conditioned medium was collected to cold Eppendorf tubes, which included a protease inhibitor cocktail (0.1 mM phenylmethylsulphonyl fluoride (PMSF); 5 μg/ml leupeptin; 5 μg/ml pepstatin and 5 units/ml aprotinin) for determining αAPPs release. The protein content of each sample was concentrated using Centricon tubes (Amicon, Beverly, Mass.). […] CHO cells double transfected with human APP695 and M1 mAChR APPs bands were probed using anti-amyloid beta protein (1:1000, monoclonal 6E10 antibody, MAB1560, Chemicon) and peroxidase-linked rabbit anti mouse IgG (1:5,000; Jackson Immuno Research, PA). PC12 cells stably transfected with M1 mAChR APPs bands were probed using the anti-Alzheimer precursor protein A4 (1:4,000; monoclonal 22C11 antibody, Boehringer Mannheim) and the peroxidase-linked rabbit anti mouse IgG (1:20,000; Jackson Immuno Research, PA). Following extensive washout, the membranes were treated with Western Lightning Chemiluminescence Reagent Plus (PerkinElmer Life Sciences, MA) followed by exposure to SuperRX film (Fuji Medical X-ray film, Tokyo, Japan). Quantitative determination of the total APPs bands was performed by Scion Image program (NIH, Bethesda, USA). Samples of control and CCh were assayed in parallel and thus enabled compilation of data from separate experiments.
# [3] = molecular target: T2, rat M1 mAChR (Rattus norvegicus, UniProt P08482); test: αAPPs secretion in PC12 cells stably transfected with rat M1 mAChR; assay type: cell-based; details: 0.1 nM to 1 μM, not observed in untransfected PC12
# T2 construct: expressed in transfected cells; host or cells: rat pheochromocytoma PC12 cells
# T2 sequence (P08482 whole entry): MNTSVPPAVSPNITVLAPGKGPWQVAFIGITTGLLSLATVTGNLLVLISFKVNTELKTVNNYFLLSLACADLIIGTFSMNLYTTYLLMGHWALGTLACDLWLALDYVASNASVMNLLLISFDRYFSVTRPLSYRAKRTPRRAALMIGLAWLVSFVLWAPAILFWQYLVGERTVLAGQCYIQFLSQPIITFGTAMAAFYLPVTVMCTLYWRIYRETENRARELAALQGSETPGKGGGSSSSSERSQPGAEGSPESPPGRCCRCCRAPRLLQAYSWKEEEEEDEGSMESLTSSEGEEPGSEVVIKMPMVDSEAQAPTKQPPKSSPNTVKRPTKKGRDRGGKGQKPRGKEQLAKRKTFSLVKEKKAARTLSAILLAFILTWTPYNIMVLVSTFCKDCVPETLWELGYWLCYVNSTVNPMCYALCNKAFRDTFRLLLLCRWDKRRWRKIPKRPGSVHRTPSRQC
# Procedure: as §1, with “Following extensive washout, the membranes were treated with Western Lightning Chemiluminescence Reagent Plus (PerkinElmer Life Sciences, MA) followed by exposure to SuperRX film (Fuji Medical X-ray film, Tokyo, Japan).” left out, “Samples of control and CCh were assayed in parallel and thus enabled compilation of data from separate experiments.” left out
# [4] = molecular target: T1, M1 mAChR
# [5] = molecular target: T1, M1 mAChR; test: Intracellular Ca2+ mobilization (Fluo-4 NW) in cells stably transfected with M1 mAChR; assay type: cell-based; design: expressed in transfected cells; details: for M1 agonist at 100 μM vs. carbachol (full muscarinic agonist, 100%): mobilization of intracellular Ca ions
# Description: On the day of experiment, cells were fully confluent.
# To evaluate selectivity for a subtype of mAChR, in particular the M1 mAChR vs. M3 and MS mAChR, the assays were calibrated using ligands that have a combined activity, e.g. M1 agonistic and M3 antagonistic or M1 agonistic and MS antagonistic profiles, respectively. This can eliminate effects due to different receptor reserves in cell-based assays.
# [6] = test system: rats; test: Passive avoidance, MK-801-induced impairment in rats; assay type: in vivo, rat; details: sc, retention 24 h later
# Description: (§2) Trihexyphenidyl is a selective M1 muscarinic antagonist that crosses the blood brain barrier and induces memory and learning impairments (Bymaster et al., J Pharmacol Exp. Ther. 267: 16-24, 1993; Roldan et al., Neurosci. Lett. 230: 93-96, 1997; Kimura et al., Brain Res. 834: 6-12, 1999). […] Naive Wistar rats were used in the experiments below. The passive avoidance (PA) task consists of a training (acquisition) phase and a retention phase. In the training procedure each rat was individually placed in the small illuminated compartment and after 60 s. of familiarization/adaptation, the door to the large compartment was opened and the latency to enter was measured (Initial Latency) Immediately following entry into the dark compartment, the door was closed and inescapable foot shock (0.6 mA for 3 s) was delivered through the grid floor. […] After the acquisition trial the rat was returned to its home cage. Retention of the passive avoidance task was measured 24 h later, by again placing the rat in the light compartment and after a 60 s adaptation interval, the door was opened and the latency to re-enter the dark compartment was measured. […] Two separate experiments were conducted. […] In both experiments the rats were divided into 2 groups. One main group was treated with trihexyphenidyl (5 mg/kg, s.c) and the second main group was treated with vehicle (DDW-1 ml/kg, s.c.), 30 min before the shock.
# MK-801 is an NMDA antagonist that induces cognitive behavioral impairments in rodents. […] In the first experiment (dose-finding study of MK-801) rats were divided into 4 groups. Three groups (N=27) were treated with MK-801 (50, 80 or 100 μg/kg, s.c) and the fourth group (N=10) was treated with vehicle (saline-1 ml/kg, s.c.), 30 min before the shock. […] One group (N=80) was treated with MK-801 (80 μg/kg, s.c) and the second group (N=59) was treated with the vehicle (saline-1 ml/kg, s.c.).
# [7] = test system: Wistar rats; test: Passive avoidance, trihexyphenidyl-induced memory impairment in rats; assay type: in vivo, rat; details: NE-100 1 mg/kg alone
# Description: as §2
# In a further extension of these studies, retention of the passive avoidance task was measured 72 h later, by again placing the rat in the light compartment and after a 60 s adaptation interval, the door was opened and the latency to re-enter the dark compartment was measured. A cutoff point of 600 s was used for retention latency. […] Rats were divided into 2 groups. One group (N=30) was treated with trihexyphenidyl (5 mg/kg, s.c) and the second group (N=29) was treated with vehicle (DDW-1 ml/kg, s.c.), 30 min before the shock.
# [8] = test system: PC12M1 cells; test: Mitochondrial apoptosis pathway, Bax and Bcl-2 immunoreactivity in PC12M1 cells
# Procedure: These cells were partially differentiated (2-3 days), as observed under microscope. […] The pellet (rich mitochondrial fraction) was re-suspended with 200 μl Ripa buffer and lysed by rapid passage through a syringe needle (23G) for five to six times. The lysate was then used for further evaluation.
# Bands were probed using the Rabbit Bax antibody (1:1000, Cell signaling, Cat. No. 2772) and Rabbit Bcl-2 antibody (1:1000, Cell signaling, Cat. No. 2870) followed by anti rabbit IgG (H&L) HRP (1:5,000, Jackson Immuno Research, 111-035-144).
structure (smiles),measurement,setting,value
"CC1SC2(CCN(C)CC2)CN1C(=O)CCc1c[nH]c2ccccc12 (racemic) [AF710, 1-(2,8-dimethyl-1-thia-3,8-diazaspiro[4.5]dec-3-yl)-3-(1H-indol-3-yl) propan-1-one]",protection against toxicity induced by Aβ25-35 (MTT),[1],protected cells
same,release of αAPPs,"[2]; CHO cells, 0.1 nM to 1 μM",enhanced the release of αAPPs
same,maximal αAPPs secretion in comparison to untreated control cells,[2],175%
same,release of αAPPs,[3],enhanced the release of αAPPs
same,effect of brucine pre-incubation on elevation of intracellular calcium ions,[4],no such effect
same,"M1 agonist at 100 μM vs. carbachol (full muscarinic agonist, 100%)",[5],40%
"CC1OC2(CCN(C)CC2)CN1C(=O)CCc1c[nH]c2ccccc12 (racemic) [AF711, 1-(2,8-dimethyl-1-oxa-3,8-diazaspiro[4.5]dec-3-yl)-3-(1H-indol-3-yl)-propan-1-one]",protection against toxicity induced by Aβ25-35 (MTT),[1],protected cells
same,"M1 agonist at 100 μM vs. carbachol (full muscarinic agonist, 100%)",[5],19%
"C[C@H]1SC2(CCN(C)CC2)CN1C(=O)CCc1c[nH]c2ccccc12 (single isomer, unassigned) [AF710A]",maximal αAPPs secretion in comparison to untreated control cells,[2],125%
same,Kd,"[5]; read-out: Effects on M1 mAChR: antagonist, Kd",31 µM
"O=C(O)CCc1c[nH]c2ccccc12 [3-IPA, 3-Indolepropionic acid, reference compound]",protection against toxicity induced by Aβ25-35 (MTT),[1],protected cells
"CC1OC2(CCN(C)CC2)C/C1=N\OC(=O)CCc1c[nH]c2ccccc12 (centres unmarked) [AF733, (3E)-2,8-dimethyl-1-oxa-8-azaspiro[4.5]decan-3-one-O—[3-(1H-indol-3-yl)propanoyl]oxime]","M1 agonist at 100 μM vs. carbachol (full muscarinic agonist, 100%)",[5],90%
"C[C@]12N[C@H](Cc3ccccc31)c1ccccc12 [MK-801, reference compound]","retention performance, dose-finding",[6]; 50 μg/kg,ineffective
same,"retention performance, dose-finding",[6]; 80 and 100 μg/kg,impaired retention performance
"CCCN(CCC)CCc1ccc(OC)c(OCCc2ccccc2)c1 [NE-100, reference compound]","inducing deficits in the PA task, alone",[7],not significantly effective
same,effect of sigma-1 antagonist on AF710B-mediated decrease of Bax elevation,[8]; NGF deprivation,blocked these AF710B-mediated effects
"C[N+](C)(C)CCOC(N)=O [carbachol, reference compound]",Aβ 25-35 induced neurotoxicity expressed as Bax/Bcl2,"[8]; PC12M1 cells, 1 μM",29%±11
